Test results as given in US20250034135A1, “ANTI-APOPTOTIC PROTEIN BCL-2 INHIBITOR, PHARMACEUTICAL COMPOSITION AND USES THEREOF” (HANGZHOU HEALZEN THERAPEUTICS CO., LTD., priority 2021, published 2025).

Each molecule was assayed against BCL2 (Homo sapiens (Human), UniProt P10415) (assay: Molecular level activity test of anti-apoptotic protein BCL2 (HTRF, binding to Bim peptide)). Conditions: HTRF, binding of BCL2 to Bim peptide; read-out: BCL2 nM (inhibitory activity, IC50).
Description: The detection of the binding ability between anti-apoptotic protein BCL2 and pro-apoptotic protein Bim was performed using Homogeneous Time-Resolved Fluorescence technology. The reaction of this method occurred in a white shallow 384-well plate, with a total reaction volume of 10 μL. Specifically, it included 2 μL of the compound to be tested (2% DMSO), 4 μL His-tagged recombinant protein, and 4 μL Biotin-tagged BIM protein peptide. After 1 hour of reaction, 5 μL of each Anti-His and streptavidin-tagged XL665 antibody diluents diluted with a detection buffer were added. After incubating at room temperature for 4 hours, the values were read using the Envision multifunctional microplate reader to detect the effect of the compound to be tested on the binding ability of BCL2 to Bim protein peptides.

BCL2, sequence (P10415 whole entry): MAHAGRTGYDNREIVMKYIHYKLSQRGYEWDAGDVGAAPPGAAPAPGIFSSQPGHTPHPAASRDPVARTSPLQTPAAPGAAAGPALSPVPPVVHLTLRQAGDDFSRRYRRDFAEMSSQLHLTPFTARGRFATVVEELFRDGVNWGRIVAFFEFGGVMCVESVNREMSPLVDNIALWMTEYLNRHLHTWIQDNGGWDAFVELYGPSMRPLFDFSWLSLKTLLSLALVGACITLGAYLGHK

SMILES	IC50 [nM]
CC(C)c1ccccc1[C@@H]1CCCN1C1CC2(CCN(c3cc(Oc4cnc5[nH]ccc5c4)c(C(=O)NS(=O)(=O)c4cc([N+](=O)[O-])c(NCC5(F)CCN(CC(F)(F)F)CC5)c5[nH]cnc45)cn3)CC2)C1 [compound 031, (S)-4-((1H-pyrrolo[2,3-b]pyrid-5-yl)oxy)-N-((7-(((4-fluoro-1-(2,2,2-trifluoroethyl)piperid-4-yl)methyl)amino)-6-nitro-1H-benzo[d]imidazol-4-yl)sulfonyl)-6-(2-(2-(2-isopropylphenyl)pyrrolidin-1-yl)-7-azaspiro[3.5]non-7-yl) nicotinamide]	< 10
CC(C)c1ccccc1[C@@H]1CCCN1C1CC2(CCN(c3cc(Oc4cnc5[nH]ccc5c4)c(C(=O)NS(=O)(=O)c4cc([N+](=O)[O-])c(NCC5(F)CCN(CC(F)(F)F)CC5)c5[nH]cnc45)cc3F)CC2)C1 [compound 032, (S)-2-((1H-pyrrolo[2,3-b]pyrid-5-yl)oxy)-5-fluoro-N-((7-(((4-fluoro-1-(2,2,2-trifluoroethyl)piperid-4-yl)methyl)amino)-6-nitro-1H-benzo[d]imidazol-4-yl)sulfonyl)-4-(2-(2-(2-isopropylphenyl)pyrrolidin-1-yl)-7-azaspiro[3.5]non-7-yl)benzamide]	< 10
CC(C)c1ccccc1[C@@H]1CCCN1C1CC2(CCN(c3cc(Oc4cnc5[nH]cc(F)c5c4)c(C(=O)NS(=O)(=O)c4cc([N+](=O)[O-])c(NC[C@H]5CC[C@](C)(O)CC5)c5[nH]cnc45)cn3)CC2)C1 [compound 037, 4-((3-fluoro-1H-pyrrolo[2,3-b]pyrid-5-yl)oxy)-N-((7-((((1r,4r)-4-hydroxy-4-methylcyclohexyl)methyl)amino)-6-nitro-1H-benzo[d]imidazol-4-yl)sulfonyl)-6-(2-((S)-2-(2-isopropylphenyl)pyrrolidin-1-yl)-7-azaspiro[3.5]non-7-yl) nicotinamide]	< 10
COc1ccc(CN2CCN(C3CC4(C3)CN(c3ccc(C(=O)NS(=O)(=O)c5cc([N+](=O)[O-])c(NC[C@H]6CC[C@](C)(O)CC6)c6[nH]cnc56)c(Oc5cnc6[nH]ccc6c5)c3)C4)C(c3ccccc3C(C)C)C2)cc1 (stereo partly drawn) [compound 040, 2-((1H-pyrrolo[2,3-b]pyrid-5-yl)oxy)-N-((7-((((1r,4r)-4-hydroxy-4-methylcyclohexyl)methyl)amino)-6-nitro-1H-benzo[d]imidazol-4-yl)sulfonyl)-4-(6-(2-(2-isopropylphenyl)-4-(4-methoxybenzyl)piperazin-1-yl)-2-azaspiro[3.3]hept-2-yl)benzamide]	< 10
CC(C)c1ccccc1C1CN(C(C)C)CCN1C1CC2(C1)CN(c1ccc(C(=O)NS(=O)(=O)c3cc([N+](=O)[O-])c(NCC4(F)CCN(C(C)C)CC4)c4[nH]cnc34)c(Oc3cnc4[nH]ccc4c3)c1)C2 (stereo not drawn) [compound 042, 2-((1H-pyrrolo[2,3-b]pyrid-5-yl)oxy)-N-((7-(((4-fluoro-1-isopropylpiperid-4-yl)methyl)amino)-6-nitro-1H-benzo[d]imidazol-4-yl)sulfonyl)-4-(6-(4-isopropyl-2-(2-isopropylphenyl)piperazin-1-yl)-2-azaspiro[3.3]hept-2-yl)benzamide]	< 10
CC(C)c1ccccc1C1CN(C2CCOCC2)CCN1C1CC2(C1)CN(c1ccc(C(=O)NS(=O)(=O)c3cc([N+](=O)[O-])c(NCC4(F)CCN(C(C)C)CC4)c4[nH]cnc34)c(Oc3cnc4[nH]ccc4c3)c1)C2 (stereo not drawn) [compound 044, 2-((1H-pyrrolo[2,3-b]pyrid-5-yl)oxy)-N-((7-(((4-fluoro-1-isopropylpiperid-4-yl)methyl)amino)-6-nitro-1H-benzo[d]imidazol-4-yl)sulfonyl)-4-(6-(2-(2-isopropylphenyl)-4-(tetrahydro-2H-pyran-4-yl)piperazin-1-yl)-2-azaspiro[3.3]hept-2-yl)benzamide]	< 10

Further lines, results first:

IC50 [nM]	SMILES
< 10	CC(C)c1ccccc1[C@@H]1CCCN1C1CC2(CCN(c3cc(Oc4cnc5[nH]ccc5c4)c(C(=O)NS(=O)(=O)c4cc([N+](=O)[O-])c(NCC5CCC(N(C)C)CC5)c5[nH]cnc45)cn3)CC2)C1 (stereo partly drawn) [compound 033, 4-((1H-pyrrolo[2,3-b]pyrid-5-yl)oxy)-N-((7-((((1S,4S)-4-(dimethylamino)cyclohexyl)methyl)amino)-6-nitro-1H-benzo[d]imidazol-4-yl)sulfonyl)-6-(2-((S)-2-(2-isopropylphenyl)pyrrolidin-1-yl)-7-azaspiro[3.5]non-7-yl) nicotinamide]
< 10	CC(C)c1ccccc1[C@@H]1CCCN1C1CC2(CCN(c3cc(Oc4cnc5[nH]ccc5c4)c(C(=O)NS(=O)(=O)c4cc([N+](=O)[O-])c(NCC5CCC(N(C)C)CC5)c5[nH]cnc45)cc3F)CC2)C1 (stereo partly drawn) [compound 034, 2-((1H-pyrrolo[2,3-b]pyrid-5-yl)oxy)-N-((7-((((1S,4S)-4-(dimethylamino)cyclohexyl)methyl)amino)-6-nitro-1H-benzo[d]imidazol-4-yl)sulfonyl)-5-fluoro-4-(2-((S)-2-(2-isopropylphenyl)pyrrolidin-1-yl)-7-azaspiro[3.5]non-7-yl)benzamide]
< 10	CC(C)c1ccccc1[C@@H]1CCCN1C1CC2(CCN(c3cc(Oc4cnc5[nH]ccc5c4)c(C(=O)NS(=O)(=O)c4cc([N+](=O)[O-])c(NC[C@H]5CC[C@](C)(O)CC5)c5c4ncn5C)cn3)CC2)C1 [compound 035, 4-((1H-pyrrolo[2,3-b]pyrid-5-yl)oxy)-N-((7-((((1r,4r)-4-hydroxy-4-methylcyclohexyl)methyl)amino)-1-methyl-6-nitro-1H-benzo[d]imidazol-4-yl)sulfonyl)-6-(2-((S)-2-(2-isopropylphenyl)pyrrolidin-1-yl)-7-azaspiro[3.5]non-7-yl) nicotinamide]
< 10	COc1ccc(CN2CCN(C3CC4(CCN(c5ccc(C(=O)NS(=O)(=O)c6cc([N+](=O)[O-])c(NC[C@H]7CC[C@](C)(O)CC7)c7[nH]cnc67)c(Oc6cnc7[nH]ccc7c6)c5)CC4)C3)C(c3ccccc3C(C)C)C2)cc1 (stereo partly drawn) [compound 039, 2-((1H-pyrrolo[2,3-b]pyrid-5-yl)oxy)-N-((7-((((1r,4r)-4-hydroxy-4-methylcyclohexyl)methyl)amino)-6-nitro-1H-benzo[d]imidazol-4-yl)sulfonyl)-4-(2-(2-(2-isopropylphenyl)-4-(4-methoxybenzyl)piperazin-1-yl)-7-azaspiro[3.5]non-7-yl)benzamide]
< 10	CC(C)c1ccccc1C1CN(C(C)C)CCN1C1CC2(CCN(c3ccc(C(=O)NS(=O)(=O)c4cc([N+](=O)[O-])c(NC[C@H]5CC[C@](C)(O)CC5)c5[nH]cnc45)c(Oc4cnc5[nH]ccc5c4)c3)CC2)C1 (stereo partly drawn) [compound 041, 2-((1H-pyrrolo[2,3-b]pyrid-5-yl)oxy)-N-((7-((((1r,4r)-4-hydroxy-4-methylcyclohexyl)methyl)amino)-6-nitro-1H-benzo[d]imidazol-4-yl)sulfonyl)-4-(2-(4-isopropyl-2-(2-isopropylphenyl)piperazin-1-yl)-7-azaspiro[3.5]non-7-yl)benzamide]
< 10	CC(C)c1ccccc1C1CN(C2CCOCC2)CCN1C1CC2(CCN(c3ccc(C(=O)NS(=O)(=O)c4cc([N+](=O)[O-])c(NC[C@H]5CC[C@](C)(O)CC5)c5[nH]cnc45)c(Oc4cnc5[nH]ccc5c4)c3)CC2)C1 (stereo partly drawn) [compound 043, 2-((1H-pyrrolo[2,3-b]pyrid-5-yl)oxy)-N-((7-((((1r,4r)-4-hydroxy-4-methylcyclohexyl)methyl)amino)-6-nitro-1H-benzo[d]imidazol-4-yl)sulfonyl)-4-(2-(2-(2-isopropylphenyl)-4-(tetrahydro-2H-pyran-4-yl)piperazin-1-yl)-7-azaspiro[3.5]non-7-yl)benzamide]
